Assay [1] deals with fibrosis-related gene expression. Briefly: Bleomycin-induced skin fibrosis, 21 days: bulk RNAseq of skin. To be noted: d21, n=2. It counts as in vivo, C57BL/6J mice. As for the experimental part:
6-week-old C57BL/6J mice were subjected to bleomycin treatment (subcutaneous injection 0.1 U/100 μl/mouse daily) in the presence or absence of BLR200 (intraperitoneal injection 10 μg/kg every other day) for 21 days. For a reversal of fibrosis experiment, BLR200 treatment was started at d14 of bleomycin treatment and continued until d28. Fibrosis was assessed by histological, and unbiased bulk RNAseq, real-time polymerase chain reaction and spatial transcriptomic analyses.
Unbiased cluster analysis of bulk RNAseq data was performed using the Database for Annotation, Visualization and Integrated Discovery (DAVID). Clusters relate to fibrosis with the enrichment score and #of genes greater than 1.0 and 10, respectively, were chosen. n=2.

Another assay addresses T1, CCN2 (Mus musculus, UniProt P29268).
T1 construct: FG-3019 treatment mitigated Ang II-induced fibrosis, as visualized by a reduction in skin thickness; host or cells: animals of the Ang II-induced dermal fibrosis model (endogenous protein)
T1 sequence (P29268 26-348): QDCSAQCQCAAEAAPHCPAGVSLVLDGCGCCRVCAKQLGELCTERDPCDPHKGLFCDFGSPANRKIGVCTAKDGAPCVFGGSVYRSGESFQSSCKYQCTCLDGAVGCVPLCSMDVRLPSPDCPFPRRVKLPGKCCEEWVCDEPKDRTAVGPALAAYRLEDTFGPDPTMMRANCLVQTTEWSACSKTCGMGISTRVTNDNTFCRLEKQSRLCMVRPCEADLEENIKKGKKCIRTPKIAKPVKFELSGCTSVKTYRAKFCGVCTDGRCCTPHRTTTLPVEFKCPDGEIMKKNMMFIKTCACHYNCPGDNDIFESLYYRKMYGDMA
The settings on record: Makino et al., 2017; cited from earlier work.

Assay [2] concerns fibrosis in diabetic nephropathy. To be noted: Riser et al., 2014; cited from earlier work.

The text below walks through data of patent US20240125803A1, “NOVEL DIAGNOSTIC AND METHOD OF SCREENING THERAPEUTICS FOR FIBROTIC CONDITIONS” (BLR-Bio, LLC, priority 2022, published 2024).

Bleomycin sulfate: in assay [1], the “Fold Chance, ADAM10” value turned out to be 3.68 Fold; the “Fold Chance, ADAMTS4” value came out at 4.29 Fold; the “Fold Chance, ADAMTS9” value is on record as 4.46 Fold; the “Fold Chance, ADAMTS20” value is on record as 11.3 Fold. Moreover, in assay [1], the “Fold Chance, CDH11” value is on record as 11.3 Fold; the “Fold Chance, CITED2” value is 6.43 Fold; the “Fold Chance, ELK1” value is listed as 3.69 Fold; the “Fold Chance, FN1” value is reported as 5.12 Fold. Also, in assay [1], the “Fold Chance, FZD6” value came out at 22.4 Fold; the “Fold Chance, ITGA6” value amounted to 4.46 Fold; the “Fold Chance, ITGAE” value stood at 3.68 Fold; the “Fold Chance, PECAM1” value is reported as 4.29 Fold. Further, in assay [1], the “Fold Chance, SMAD3” value is 3.07 Fold; the “Fold Chance, TNC” value is listed as 3.13 Fold; the “Fold Chance, WNT4” value is given as 3.07 Fold; the “Fold Chance, WNT7a” value is on record as 5.81 Fold. In addition, in assay [1], the “Fold Chance, YAP1 (Yes-associated protein 1)” value is reported as 8.61 Fold.
Take “FG-3019: monoclonal antibody targeting CCN2”: in the assay with CCN2, the “Ang II-induced fibrosis (skin thickness, collagen deposition, number of αSMA-expressing myofibroblasts)” value is “mitigated”.

B1: rhCCN3: recombinant human CCN3 (protein, UniProt P48745 32-357, looked up)
CCN family member 3: TQRCPPQCPGRCPATPPTCAPGVRAVLDGCSCCLVCARQRGESCSDLEPCDESSGLYCDRSADPSNQTGICTAVEGDNCVFDGVIYRSGEKFQPSCKFQCTCRDGQIGCVPRCQLDVLLPEPNCPAPRKVEVPGECCEKWICGPDEEDSLGGLTLAAYRPEATLGVEVSDSSVNCIEQTTEWTACSKSCGMGFSTRVTNRNRQCEMLKQTRLCMVRPCEQEPEQPTDKKGKKCLRTKKSLKAIHLQFKNCTSLHTYKPRFCGVCSDGRCCTPHNTKTIQAEFQCSPGQIVKKPVMVIGTCTCHTNCPKNNEAFLQELELKTTRGKM
As for B1, the “fibrosis in a mouse model of diabetic nephropathy” value in assay [2] is “block and reverse fibrosis”.
